pIC50: −log10 of the molar value.
What was measured:
[1] = target: T1, integrin α 4β7 (Homo sapiens, UniProt P13612+P26010); assay: VCAM antagonistic activity (VCAM-1/α4β7 binding assay), RPMI-8866 cells binding to VCAM-1; type: cell-based; settings: RPMI-8866 cells (human B cells) binding to recombinant human VCAM-1; binding buffer containing 4 mM of MnCl2; room temperature, 30 minutes; read-out: VCAM-1/α 4 β 7 linking antagonization activity IC50
T1 construct: lymphoma cell strain RPMI-8866 of human B cells, known to express integrin α 4β7; endogenous in cells; host or cells: RPMI-8866 (human B lymphoma cell line)
T1 sequence (P13612 34-1032): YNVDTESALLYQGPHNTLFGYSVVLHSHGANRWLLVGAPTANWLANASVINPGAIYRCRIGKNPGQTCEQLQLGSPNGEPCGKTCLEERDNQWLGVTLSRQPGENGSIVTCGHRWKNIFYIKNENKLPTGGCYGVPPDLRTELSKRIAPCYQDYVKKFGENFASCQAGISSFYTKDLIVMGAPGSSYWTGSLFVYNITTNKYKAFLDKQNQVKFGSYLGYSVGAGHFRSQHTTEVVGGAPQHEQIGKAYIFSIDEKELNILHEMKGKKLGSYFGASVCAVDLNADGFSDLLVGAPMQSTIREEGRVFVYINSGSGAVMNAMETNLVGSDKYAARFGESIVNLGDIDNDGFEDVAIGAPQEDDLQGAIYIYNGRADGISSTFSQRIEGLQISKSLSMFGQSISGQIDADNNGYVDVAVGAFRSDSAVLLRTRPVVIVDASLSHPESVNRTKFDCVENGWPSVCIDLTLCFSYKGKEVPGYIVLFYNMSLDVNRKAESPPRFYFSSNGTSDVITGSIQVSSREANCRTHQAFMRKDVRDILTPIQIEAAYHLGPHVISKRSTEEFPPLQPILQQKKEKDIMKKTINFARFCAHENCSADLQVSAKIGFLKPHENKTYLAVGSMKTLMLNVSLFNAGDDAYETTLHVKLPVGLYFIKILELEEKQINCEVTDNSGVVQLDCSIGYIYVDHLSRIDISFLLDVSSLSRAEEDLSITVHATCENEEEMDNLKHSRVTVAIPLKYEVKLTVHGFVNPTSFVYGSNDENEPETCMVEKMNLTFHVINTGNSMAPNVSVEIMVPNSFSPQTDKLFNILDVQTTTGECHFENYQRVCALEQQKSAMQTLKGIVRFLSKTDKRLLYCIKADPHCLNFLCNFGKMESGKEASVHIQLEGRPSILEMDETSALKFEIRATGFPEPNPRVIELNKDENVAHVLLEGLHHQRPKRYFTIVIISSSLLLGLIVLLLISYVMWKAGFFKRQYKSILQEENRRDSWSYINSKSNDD
T1 sequence (P26010 20-798): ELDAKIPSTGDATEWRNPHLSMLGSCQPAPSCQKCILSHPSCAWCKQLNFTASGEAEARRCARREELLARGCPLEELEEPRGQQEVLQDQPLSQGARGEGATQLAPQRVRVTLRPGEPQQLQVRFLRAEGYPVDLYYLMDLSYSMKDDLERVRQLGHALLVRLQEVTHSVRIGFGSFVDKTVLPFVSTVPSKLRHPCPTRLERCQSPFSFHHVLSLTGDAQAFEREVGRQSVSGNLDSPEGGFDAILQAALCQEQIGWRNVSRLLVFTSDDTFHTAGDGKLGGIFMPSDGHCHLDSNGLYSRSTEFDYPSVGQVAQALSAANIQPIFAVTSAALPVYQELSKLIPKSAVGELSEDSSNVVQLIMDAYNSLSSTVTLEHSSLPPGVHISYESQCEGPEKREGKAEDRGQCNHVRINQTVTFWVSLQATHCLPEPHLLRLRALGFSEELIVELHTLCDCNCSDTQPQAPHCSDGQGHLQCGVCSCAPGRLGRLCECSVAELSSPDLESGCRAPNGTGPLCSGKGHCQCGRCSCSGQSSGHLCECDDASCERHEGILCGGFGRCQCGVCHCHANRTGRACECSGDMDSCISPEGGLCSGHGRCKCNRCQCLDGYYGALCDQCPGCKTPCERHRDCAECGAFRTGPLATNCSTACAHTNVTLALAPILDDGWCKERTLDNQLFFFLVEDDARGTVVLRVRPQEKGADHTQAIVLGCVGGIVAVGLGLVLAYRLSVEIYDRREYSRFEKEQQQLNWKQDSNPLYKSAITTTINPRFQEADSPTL
Procedure: (Test Example) VCAM Antagonistic Activity (VCAM-1/α4β7 Binding Assay):
The capacity of a test substance antagonistic to the binding of lymphoma cell strain RPMI-8866 of human B cells, known to express integrin α 4β7, to VCAM-1 was determined.
(§1) 100 μl/well of a solution (500 ng/ml) of recombinant human VCAM-1 (R & D systems) solution diluted with buffer A (0.1 M NaHCO3, pH 9.6) was added to a micro titer plate having 96 wells (Nunc Maxisorp). After the incubation at 4° C. overnight, unbound VCAM-1 was removed by washing once with PBS. After completion of the washing, a buffer (buffer B) obtained by diluting Block Ace® (Dainippon Pharmaceutical Co., Ltd.) with PBS to ¼ concentration was added in an amount of 150 μl/well. After the incubation at room temperature for 1 hour, buffer B was removed and the plate was washed with PBS once.
RPMI-8866 cells were incubated in DMEM containing 10 μg/ml of Calcein-AM (Wako Pure Chemical Industries, Ltd.) at 37° C. for 30 minutes to label with fluorescence. The cells were again suspended in a binding buffer (20 mM HEPES, DMEM containing 0.1% BSA) containing 4 mM of MnCl2.
(§2) 50 μl of a test substance of various concentrations obtained by the dilution with the binding buffer was added to the plate. Immediately thereafter, 50 μl (final volume: 100 μl/well) of the fluorescent RPMI-8866 cells (4×10^6 cells/ml) were added thereto, and they were incubated at room temperature for 30 minutes. After the shaking on a plate shaker (IKA MTS-4) at 800 rpm for 30 seconds, the solution was immediately removed to remove the unbound cells. The fluorescence quantity of the bound cells remaining in the wells was determined with a fluorescent plate reader (Wallac 1420 ARVO multi-label counter) (filter excitation wave length: 485 nm, emission wave length: 535 nm). The fluorescent strength thus obtained is proportional to the number of RPMI-8866 cells bound to VCAM-1 and remaining on the plate. The binding rate of each test material in various concentrations was determined while the fluorescent strength of the test material-free well was determined to be 100%. The concentration IC50 for the 50% binding inhibition was calculated.

[2] = target: T2, integrin α 4β1 (Homo sapiens, UniProt P05556+P13612); assay: VCAM antagonistic activity (VCAM-1/α4β1 binding assay), Jurkat cells binding to VCAM-1; type: cell-based; settings: Jurkat cells (human T cells) binding to recombinant human VCAM-1; room temperature, 30 minutes; read-out: VCAM-1/α 4 β 1 linking antagonization activity IC50
T2 construct: cell strain Jurkat (ATCC TIB-152) of human T cells, known to express integrin α 4β1; host or cells: Jurkat (human T cell line)
T2 sequence (P05556 21-798, one chain of several): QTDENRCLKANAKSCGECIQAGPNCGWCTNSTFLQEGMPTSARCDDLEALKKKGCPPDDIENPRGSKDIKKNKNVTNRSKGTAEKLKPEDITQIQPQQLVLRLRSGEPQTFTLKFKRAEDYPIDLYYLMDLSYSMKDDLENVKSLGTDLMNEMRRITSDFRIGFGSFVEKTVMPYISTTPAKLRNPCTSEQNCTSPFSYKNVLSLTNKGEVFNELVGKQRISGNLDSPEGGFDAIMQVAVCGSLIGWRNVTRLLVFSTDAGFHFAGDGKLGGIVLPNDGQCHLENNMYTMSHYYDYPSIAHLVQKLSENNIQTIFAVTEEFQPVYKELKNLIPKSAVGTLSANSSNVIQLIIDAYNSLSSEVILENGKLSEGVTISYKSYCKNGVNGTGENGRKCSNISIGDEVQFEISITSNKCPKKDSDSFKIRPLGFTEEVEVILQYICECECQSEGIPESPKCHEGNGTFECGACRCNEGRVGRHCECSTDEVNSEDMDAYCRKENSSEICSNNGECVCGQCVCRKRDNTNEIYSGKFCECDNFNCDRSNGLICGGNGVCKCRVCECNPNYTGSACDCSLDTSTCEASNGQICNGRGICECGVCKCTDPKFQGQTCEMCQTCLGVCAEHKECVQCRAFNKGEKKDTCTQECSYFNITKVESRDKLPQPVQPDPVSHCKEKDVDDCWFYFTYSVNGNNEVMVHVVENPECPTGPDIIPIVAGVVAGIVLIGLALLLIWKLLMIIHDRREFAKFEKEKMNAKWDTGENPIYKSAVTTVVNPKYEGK
Procedure: (Test Example) VCAM Antagonistic Activity (VCAM-1/α4β1 Binding Assay):
The capacity of a test substance antagonistic to the binding of cell strain Jurkat (ATCC TIB-152) of human T cells, known to express integrin α 4β1, to VCAM-1 was determined.
as §1
Jurkat cells were washed with Dulbecco modified Eagle medium (SIGMA, hereinafter referred to as “DMEM”) twice and then incubated in DMEM containing 10 μg/ml of Calcein-AM (Wako Pure Chemical Industries, Ltd.) at 37° C. in dark place for 30 minutes to label with fluorescence. The cells were again suspended in a binding buffer (20 mM HEPES, DMEM containing 0.1% BSA).
as §2, with “Jurkat” for “RPMI-8866”

O=C(NC(Cc1ccc(OCc2c(Cl)cccc2Cl)cc1)C(=O)O)c1ccc(N2CCNCC2)c([N+](=O)[O-])c1 (stereo not shown) [Example 25]
pIC50 [1]: 6.12
pIC50 [2]: 5.40

O=C1CCN(c2ccc([N+](=O)[O-])c(C(=O)NC(Cc3ccc(OCc4c(Cl)cccc4Cl)cc3)C(=O)O)c2)CC1 (stereo not shown) [Example 21]
pIC50 [1]: 6.80
pIC50 [2]: 5.48

CN(CCO)c1ccc([N+](=O)[O-])c(C(=O)NC(Cc2ccc(OCc3c(Cl)cccc3Cl)cc2)C(=O)O)c1 (stereo not shown) [Example 23]
pIC50 [1]: 7.18
pIC50 [2]: 5.66

O=C(NC(Cc1ccc(OCc2c(Cl)cccc2Cl)cc1)C(=O)O)c1cc(N2CCNCC2)ccc1[N+](=O)[O-] (stereo not shown) [Example 8]
pIC50 [1]: 6.12
pIC50 [2]: 5.40

CC(C)NCCCN(c1ccc([N+](=O)[O-])c(C(=O)NC(Cc2ccc(OCc3c(Cl)cccc3Cl)cc2)C(=O)O)c1)C(C)C (stereo not shown) [Example 3]
pIC50 [1]: 6.92
pIC50 [2]: 5.26

CC(C)NCCN(c1ccc([N+](=O)[O-])c(C(=O)NC(Cc2ccc(OCc3c(Cl)cccc3Cl)cc2)C(=O)O)c1)C(C)C (stereo not shown) [Example 2, N-(3-(N-isopropylaminoethyl-N′-isopropyl)amino-6-nitrobenzoyl)-O-(2,6-dichlorobenzyl)tyrosine]
pIC50 [1]: 7.00
pIC50 [2]: 5.40

CCCNCCCCN(CCC)c1ccc([N+](=O)[O-])c(C(=O)NC(Cc2ccc(OCc3c(Cl)cccc3Cl)cc2)C(=O)O)c1 (stereo not shown) [Example 4]
pIC50 [1]: 6.92
pIC50 [2]: 5.43

CCCN(C)c1ccc([N+](=O)[O-])c(C(=O)NC(Cc2ccc(OCc3c(Cl)cccc3Cl)cc2)C(=O)O)c1 (stereo not shown) [Example 12]
pIC50 [1]: 6.44
pIC50 [2]: 5.39

CCNCCN(CC)c1ccc([N+](=O)[O-])c(C(=O)NC(Cc2ccc(OCc3c(Cl)cccc3Cl)cc2)C(=O)O)c1 (stereo not shown) [Example 7]
pIC50 [1]: 6.80
pIC50 [2]: 5.03

O=C(NC(Cc1ccc(OCc2c(Cl)cccc2Cl)cc1)C(=O)O)c1cc(N2CCC(O)CC2)ccc1[N+](=O)[O-] (stereo not shown) [Example 22]
pIC50 [1]: 6.66
pIC50 [2]: 5.34

CSc1ncc(Cl)c(C(=O)Nc2ccc(CC(NC(=O)c3cc(N(CCNC(C)C)C(C)C)ccc3[N+](=O)[O-])C(=O)O)cc2)n1 (stereo not shown) [Example 27]
pIC50 [1]: 8.92
pIC50 [2]: 7.57

CC(C)NCCN(c1ccc([N+](=O)[O-])c(C(=O)NC(Cc2ccc(NC(=O)c3snnc3-c3ccccc3)cc2)C(=O)O)c1)C(C)C (stereo not shown) [Example 26]
pIC50 [1]: 7.43
pIC50 [2]: 5.62

CSc1ncc(Cl)c(C(=O)Nc2ccc(C[C@H](NC(=O)c3cc(N(CCN(C(C)=O)C(C)C)C(C)C)ccc3[N+](=O)[O-])C(=O)O)cc2)n1 [Example 30]
pIC50 [1]: 8.28
pIC50 [2]: 7.06

O=C(NC(Cc1ccc(OCc2c(Cl)cccc2Cl)cc1)C(=O)O)c1cc(N2CCOCC2)ccc1[N+](=O)[O-] (stereo not shown) [Example 18]
pIC50 [1]: 6.85
pIC50 [2]: 5.66

CC1CN(c2ccc([N+](=O)[O-])c(C(=O)NC(Cc3ccc(OCc4c(Cl)cccc4Cl)cc3)C(=O)O)c2)C(C)CN1 (stereo not shown) [Example 5]
pIC50 [1]: 6.85
pIC50 [2]: 5.31

CCNC/C=C/CN(CC)c1ccc([N+](=O)[O-])c(C(=O)NC(Cc2ccc(OCc3c(Cl)cccc3Cl)cc2)C(=O)O)c1 (stereo not shown) [Example 6]
pIC50 [1]: 6.82
pIC50 [2]: 5.32

CSc1ncc(Cl)c(C(=O)Nc2ccc(C[C@H](NC(=O)c3cc(N(CCNC(C)C)C(C)C)ccc3[N+](=O)[O-])C(=O)O)cc2)n1 [Example 28]
pIC50 [1]: 8.96
pIC50 [2]: 7.64
